Results reported in PMC3364022 (Journal of the American Chemical Society, 2011).
Where a SMILES comes first, the peptide text is derived from it. [ ]: non-standard residue; d: D form. β3hW = N[C@H](CC(=O)O)Cc1c[nH]c2ccccc12; β3hY = N[C@H](CC(=O)O)Cc1ccc(O)cc1; β3hR = N=C(N)NCCC[C@H](N)CC(=O)O; β3hF = N[C@H](CC(=O)O)Cc1ccccc1; β3hQ = NC(=O)CC[C@H](N)CC(=O)O; βAla = NCCC(=O)O

Molecular target: Bcl-xL (Homo sapiens, UniProt Q07817)
Assay: Competition fluorescence polarization
Type: binding
Settings: competition FP Ki, relative to α-peptide 1

Bcl-xL, sequence (Q07817 whole entry): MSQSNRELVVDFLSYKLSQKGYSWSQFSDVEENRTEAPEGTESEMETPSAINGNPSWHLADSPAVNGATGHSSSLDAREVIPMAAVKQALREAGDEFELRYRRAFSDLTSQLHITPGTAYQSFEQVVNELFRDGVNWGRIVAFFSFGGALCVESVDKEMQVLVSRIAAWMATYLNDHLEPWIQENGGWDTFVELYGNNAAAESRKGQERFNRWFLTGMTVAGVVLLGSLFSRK

CC[C@H](C)[C@H](NC(C)=O)C(=O)N[C@H](CC(=O)N[C@H](C(=O)N[C@@H](C)C(=O)N[C@@H](CCC(N)=O)CC(=O)N[C@@H](CCC(=O)O)C(=O)N[C@@H](CC(C)C)C(=O)N[C@@H](CCCNC(=N)N)CC(=O)N[C@@H](CCCNC(=N)N)C(=O)N[C@H](C(=O)NCCC(=O)N[C@@H](CC(=O)O)C(=O)N[C@@H](CCC(=O)O)C(=O)N[C@H](CC(=O)N[C@@H](CC(N)=O)C(=O)N[C@@H](C)C(=O)N[C@H](CC(=O)N[C@@H](Cc1ccc(O)cc1)C(N)=O)Cc1ccc(O)cc1)Cc1ccccc1)[C@@H](C)CC)[C@@H](C)CC)Cc1c[nH]c2ccccc12 [3c] (Ac-I[β3hW]IA[β3hQ]EL[β3hR]RI[βAla]DE[β3hF]NA[β3hY]Y-NH2)
Affinity for Bcl-xL, fold weaker than observed for 1: 23 fold
